Non-standard residues stand in square brackets, D forms with d. Residues, ends and D or L forms follow the SMILES beside them. ξ: configuration not given here. *: point of attachment. DOTA = O=C(O)CN1CCN(CC(=O)O)CCN(CC(=O)*)CCN(CC(=O)O)CC1; ξIle = CC[C@H](C)C(N)C(=O)O; AEA = NCCOCC(=O)O
Legend:
integrin αvβ3 = integrin αvβ3 (Homo sapiens, UniProt P05106+P06756); test: Target affinity test by surface plasmon resonance (SPR), integrin αvβ3; format: binding
Procedure: (§1) Surface plasmon resonance (SPR) technique was used to test the affinity of the compound in the examples to the target protein integrin α5β1. Specifically, the following operations were performed.
(§2) The affinity constants (KD) of the compounds to the target proteins integrin α5β1, αvβ3, and αvβ5 were calculated according to the formula of KD=Kd/Ka (the lower the value of KD, the higher the affinity of the compounds of the examples to the target protein integrin α5β1).

integrin α5β1 = integrin α5β1 (Homo sapiens, UniProt P05556+P08648); test: Target affinity test by surface plasmon resonance (SPR), integrin α5β1; format: binding
Procedure: as §1, §2

[1] = SPR (Biacore T200), CM5 chip, 25° C., KD=Kd/Ka

Sequence of integrin α5β1 (P08648 42-995 limits assumed): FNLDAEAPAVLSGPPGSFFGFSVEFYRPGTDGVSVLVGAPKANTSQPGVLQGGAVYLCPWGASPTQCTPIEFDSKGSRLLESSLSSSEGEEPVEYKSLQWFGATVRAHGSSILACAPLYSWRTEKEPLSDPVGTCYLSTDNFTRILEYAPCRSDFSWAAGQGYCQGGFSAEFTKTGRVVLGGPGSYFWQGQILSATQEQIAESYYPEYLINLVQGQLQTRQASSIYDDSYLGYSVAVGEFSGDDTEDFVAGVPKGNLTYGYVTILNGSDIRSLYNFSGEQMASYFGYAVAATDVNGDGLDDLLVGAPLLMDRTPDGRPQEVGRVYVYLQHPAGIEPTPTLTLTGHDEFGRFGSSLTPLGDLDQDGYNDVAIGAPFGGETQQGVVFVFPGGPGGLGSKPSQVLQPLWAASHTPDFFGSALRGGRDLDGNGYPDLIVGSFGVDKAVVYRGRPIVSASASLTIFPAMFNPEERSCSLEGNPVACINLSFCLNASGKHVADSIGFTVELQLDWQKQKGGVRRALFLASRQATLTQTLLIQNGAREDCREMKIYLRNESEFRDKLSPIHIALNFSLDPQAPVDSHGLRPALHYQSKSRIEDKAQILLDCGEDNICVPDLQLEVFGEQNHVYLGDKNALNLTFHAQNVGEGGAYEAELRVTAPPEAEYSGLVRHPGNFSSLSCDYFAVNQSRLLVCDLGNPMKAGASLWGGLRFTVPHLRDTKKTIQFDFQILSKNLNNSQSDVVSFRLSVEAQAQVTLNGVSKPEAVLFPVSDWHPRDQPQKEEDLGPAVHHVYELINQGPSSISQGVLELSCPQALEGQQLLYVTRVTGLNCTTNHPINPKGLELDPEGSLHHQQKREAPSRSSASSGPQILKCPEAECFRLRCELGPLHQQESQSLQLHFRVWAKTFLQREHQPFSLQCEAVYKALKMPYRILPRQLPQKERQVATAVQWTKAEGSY
Sequence of integrin α5β1 (P05556 21-728 limits assumed): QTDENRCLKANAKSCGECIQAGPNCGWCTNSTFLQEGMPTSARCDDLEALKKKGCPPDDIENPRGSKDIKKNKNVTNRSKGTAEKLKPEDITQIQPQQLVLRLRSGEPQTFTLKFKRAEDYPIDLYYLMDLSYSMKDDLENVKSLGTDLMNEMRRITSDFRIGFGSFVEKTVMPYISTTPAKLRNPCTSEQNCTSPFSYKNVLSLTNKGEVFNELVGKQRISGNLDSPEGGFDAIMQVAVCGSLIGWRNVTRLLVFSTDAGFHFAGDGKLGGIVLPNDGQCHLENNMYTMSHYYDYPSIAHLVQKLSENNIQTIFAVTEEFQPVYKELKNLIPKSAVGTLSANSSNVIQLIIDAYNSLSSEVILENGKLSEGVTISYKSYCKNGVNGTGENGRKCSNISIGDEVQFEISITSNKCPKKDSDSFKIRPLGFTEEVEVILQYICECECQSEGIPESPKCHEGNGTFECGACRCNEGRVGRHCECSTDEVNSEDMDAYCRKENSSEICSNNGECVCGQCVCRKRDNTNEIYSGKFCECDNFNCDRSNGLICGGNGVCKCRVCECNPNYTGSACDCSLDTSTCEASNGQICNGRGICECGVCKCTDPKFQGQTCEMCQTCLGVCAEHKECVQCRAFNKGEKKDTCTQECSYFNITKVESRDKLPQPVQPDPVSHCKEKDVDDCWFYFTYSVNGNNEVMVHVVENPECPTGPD
Sequence of integrin αvβ3 (P06756 31-992 limits assumed): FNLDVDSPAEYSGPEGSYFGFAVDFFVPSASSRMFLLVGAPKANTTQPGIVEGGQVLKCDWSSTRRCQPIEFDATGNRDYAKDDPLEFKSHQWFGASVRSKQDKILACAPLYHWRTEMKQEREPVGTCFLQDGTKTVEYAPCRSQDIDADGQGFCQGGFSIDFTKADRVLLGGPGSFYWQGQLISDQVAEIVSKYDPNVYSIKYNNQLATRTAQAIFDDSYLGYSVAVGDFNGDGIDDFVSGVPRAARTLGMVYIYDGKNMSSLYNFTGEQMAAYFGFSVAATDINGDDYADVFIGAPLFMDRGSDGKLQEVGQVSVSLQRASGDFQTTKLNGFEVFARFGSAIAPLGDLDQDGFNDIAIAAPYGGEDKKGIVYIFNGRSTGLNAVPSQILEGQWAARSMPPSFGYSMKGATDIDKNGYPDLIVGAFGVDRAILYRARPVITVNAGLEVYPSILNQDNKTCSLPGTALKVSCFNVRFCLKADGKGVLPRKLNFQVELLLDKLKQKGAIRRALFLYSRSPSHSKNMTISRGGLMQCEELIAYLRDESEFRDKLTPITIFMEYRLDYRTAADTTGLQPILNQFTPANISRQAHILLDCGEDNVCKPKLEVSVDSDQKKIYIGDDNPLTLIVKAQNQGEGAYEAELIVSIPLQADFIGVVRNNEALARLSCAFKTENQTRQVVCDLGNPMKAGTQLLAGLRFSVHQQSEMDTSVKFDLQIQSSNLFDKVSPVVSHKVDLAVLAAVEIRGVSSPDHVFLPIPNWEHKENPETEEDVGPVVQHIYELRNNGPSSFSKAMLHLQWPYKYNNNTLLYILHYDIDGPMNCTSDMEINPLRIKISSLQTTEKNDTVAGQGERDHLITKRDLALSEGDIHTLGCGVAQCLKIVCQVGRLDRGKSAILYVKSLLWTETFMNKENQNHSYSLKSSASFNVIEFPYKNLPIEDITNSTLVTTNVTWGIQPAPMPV
Sequence of integrin αvβ3 (P05106 27-718 limits assumed): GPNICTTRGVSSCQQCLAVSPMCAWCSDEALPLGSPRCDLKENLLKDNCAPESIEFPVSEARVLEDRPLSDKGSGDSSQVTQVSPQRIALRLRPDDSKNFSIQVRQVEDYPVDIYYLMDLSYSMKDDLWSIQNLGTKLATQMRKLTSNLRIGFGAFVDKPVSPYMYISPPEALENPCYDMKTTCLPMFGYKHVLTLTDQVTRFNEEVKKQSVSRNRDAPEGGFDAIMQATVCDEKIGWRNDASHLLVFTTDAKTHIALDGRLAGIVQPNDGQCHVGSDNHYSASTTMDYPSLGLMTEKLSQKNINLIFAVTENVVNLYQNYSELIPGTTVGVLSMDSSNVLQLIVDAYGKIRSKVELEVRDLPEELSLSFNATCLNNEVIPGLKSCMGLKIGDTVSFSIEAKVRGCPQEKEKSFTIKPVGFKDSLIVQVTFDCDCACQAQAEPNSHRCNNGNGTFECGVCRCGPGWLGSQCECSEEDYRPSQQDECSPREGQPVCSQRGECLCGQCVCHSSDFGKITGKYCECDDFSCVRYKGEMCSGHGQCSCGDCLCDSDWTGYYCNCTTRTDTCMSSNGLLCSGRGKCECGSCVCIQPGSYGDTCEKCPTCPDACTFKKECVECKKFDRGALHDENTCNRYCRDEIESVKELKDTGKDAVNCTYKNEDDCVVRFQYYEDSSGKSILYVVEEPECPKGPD

For `CC[C@H](C)C(NC(=O)[C@@H](NC(=O)[C@H](CC(=O)O)NC(=O)[C@H](CC(N)=O)NC(=O)[C@H](CC(=O)O)NC(=O)CNC(=O)[C@H](CCCNC(=N)N)NC(=O)COCCNC(=O)CN1CCN(CC(=O)O)CCN(CC(=O)O)CCN(CC(=O)O)CC1)C(C)C)C(=O)N[C@@H](CC(N)=O)C(=O)O` (stereo partly shown) [TM15] ({DOTA-AEA}-RGDNDV[ξIle]N-OH), the “affinity constant (KD) to integrin αvβ3, in words” value (integrin αvβ3; SPR) was “nM level”, the Kd (integrin αvβ3; [1]) was 1.69 nM and the “affinity constant (KD) to integrin α5β1, in words” value (integrin α5β1; SPR) was “better than nM level”. It also gave a Kd (integrin α5β1; [1]) of 0.992 nM.

— patent publication US20260014285A1, “POLYPEPTIDE COMPOUND, AND COMPLEX AND USE THEREOF” (HANGZHOU HEALTHYTIDE BIOTECHNOLOGY CO., LTD., priority 2022, published 2026)
